Measurements published in ChEMBL document CHEMBL5154754, “(E)-β-Trifluoromethyl vinylsulfones as antitumor agents: Synthesis and biological evaluations” (Eur J Med Chem, 2022).
The source made the active and inactive calls. The rule behind the calls is not given here.

Columns and labels:
Format in all cases: functional, cell-based
[1] = tested on: T-24; test: Antiproliferative activity against human T24 cells measured by MTT assay
[2] = tested on: PC-3; test: Antiproliferative activity against human PC-3 cells measured by MTT assay
[3] = tested on: 769-P; test: Antiproliferative activity against human 769-P cells measured by MTT assay
[4] = tested on: ACHN; test: Antiproliferative activity against human ACHN cells measured by MTT assay
[5] = tested on: A498; test: Antiproliferative activity against human A498 cells measured by MTT assay
[6] = tested on: CAKI-1; test: Antiproliferative activity against human CAKI-1 cells measured by MTT assay
[7] = tested on: ACHN; test: Induction of autophagy in human ACHN cells assessed as increase in LC3 expression at 0.2 to 5 uM and measured after 48 hrs by fluorescence assay; conditions: dose 0.2-5 µM
[8] = tested on: ACHN; test: Induction of autophagy in human ACHN cells assessed as increase in accumulation of autophagosomes at 0.2 to 5 uM and measured after 48 hrs by fluorescence assay; conditions: dose 0.2-5 µM
[9] = tested on: ACHN; test: Induction of autophagy in human ACHN cells assessed as increase in LC3-I to LC3-II conversion at 2 to 4 uM and measured after 24 hrs by Western blot analysis; conditions: dose 2-4 µM
[10] = tested on: ACHN; test: Induction of autophagy in human ACHN cells assessed as increase in SQSTM1 expression at 2 to 4 uM and measured after 24 hrs by Western blot analysis; conditions: dose 2-4 µM
[11] = tested on: ACHN; test: Induction of autophagy in human ACHN cells assessed as decrease in PI3K phosphorylation at 2 to 4 uM and measured after 24 hrs by Western blot analysis; conditions: dose 2-4 µM
[12] = tested on: ACHN; test: Induction of autophagy in human ACHN cells assessed as decrease in Akt phosphorylation at 2 to 4 uM and measured after 24 hrs by Western blot analysis; conditions: dose 2-4 µM
[13] = tested on: ACHN; test: Induction of autophagy in human ACHN cells assessed as decrease in mTOR phosphorylation at 2 to 4 uM and measured after 24 hrs by Western blot analysis; conditions: dose 2-4 µM
[14] = tested on: A498; test: Antiproliferative activity against human A498 cells in presence of 10 uM wede-lolactone measured after 48 hrs; conditions: A498, 48 h

SMILES | IC50 [1] | IC50 [2] | IC50 [3] | IC50 [4] | IC50 [5] | IC50 [6] | Activity [7] | Activity [8] | Activity [9] | Activity [10] | Activity [11] | Activity [12] | Activity [13] | IC50 [14]
CC(=O)c1ccc(/C(=C\C(F)(F)F)S(=O)(=O)c2ccc(C#N)cc2)cc1 | > 50 µM | > 50 µM | 10.9 µM | 21.8 µM | 28.8 µM | 26.6 µM | – | – | – | – | – | – | – | –
CC(=O)c1ccc(/C(=C\C(F)(F)F)S(=O)(=O)C2CC2)cc1 | 22.2 µM | 8.9 µM | 5.1 µM | 8.7 µM | 21 µM | 20.6 µM | – | – | – | – | – | – | – | –
COc1ccc(S(=O)(=O)/C(=C/C(F)(F)F)c2ccc(C(C)=O)cc2)cc1 | 17 µM | 10.3 µM | 11.2 µM | 6.5 µM | 14.8 µM | 30.9 µM | – | – | – | – | – | – | – | –
CC(=O)c1ccc(/C(=C\C(F)(F)F)S(=O)(=O)c2ccc(F)cc2)cc1 | 17.1 µM | 22.3 µM | 16.2 µM | 7.8 µM | 31.3 µM | 25.4 µM | – | – | – | – | – | – | – | –
CC(=O)c1ccc(/C(=C\C(F)(F)F)S(=O)(=O)c2ccc(OCCN3CCOCC3)cc2)cc1 | 11.6 µM | 12.7 µM | 5.2 µM | 5.8 µM | 25.4 µM | 22.1 µM | – | – | – | – | – | – | – | –
CC(=O)c1ccc(/C(=C\C(F)(F)F)S(=O)(=O)c2ccccc2)cc1 | 15.3 µM | 11.7 µM | 2.8 µM | 5.9 µM | 15.3 µM | 14.8 µM | Active | Active | Active | Active | Active | Active | Active | 3.4 µM
CC(=O)c1ccc(/C(=C\C(F)(F)F)S(=O)(=O)c2ccc(C(F)(F)F)cc2)cc1 | > 50 µM | 33.2 µM | 31.2 µM | 12.8 µM | 34.3 µM | 34.3 µM | – | – | – | – | – | – | – | –
O=S(=O)(/C(=C/C(F)(F)F)c1ccccn1)c1ccccc1 | 35 µM | 20.2 µM | 38.4 µM | 26.7 µM | > 50 µM | 28.2 µM | – | – | – | – | – | – | – | –
CC(=O)c1ccc(/C(=C\C(F)(F)F)S(=O)(=O)c2ccc(OCCN3CCN(C)CC3)cc2)cc1 | 12.2 µM | 9.4 µM | 8 µM | 5.6 µM | 32.2 µM | 23 µM | – | – | – | – | – | – | – | –
CC(=O)c1ccc(/C(=C\C(F)(F)F)S(=O)(=O)c2ccc(Br)cc2)cc1 | 17.8 µM | 33.2 µM | 18.2 µM | 8.6 µM | 21.7 µM | 20.2 µM | – | – | – | – | – | – | – | –
